Legend:
Settings in all cases: promptly after spray drying and vacuum drying
[1] = Amorphicity / crystallinity by XRD on stability; format: physicochemical
Method: Diffraction patterns were obtained using a Rigaku MiniFlex 600.
The percent of crystallinity was calculated as follows: % crystallinity=area of crystalline peaks/(area of crystalline peaks+amorphous peaks)
(§1) ASDs stored at 25° C./60% RH and 25° C./protected were additionally evaluated at 9 months and 12 months.
Amorphicity and glass transition temperature were assessed using the methodology described in Example 1.

[2] = Water content by coulometric Karl Fischer titration; format: physicochemical
[3] = Assay / total impurities by HPLC on stability; format: physicochemical
Method: as §1
LOD was evaluated using the Computrac Max 4000, in which approximately 0.5 g of material was spread evenly across the sample pan. Assay/impurities of the ASDs were assessed using the instrument parameters, measurement conditions, and gradient profile specified in Table 11.

[4] = Glass transition temperature by modulated DSC

XRD crystallinity [1]: exhibited crystalline character | Water content [2]: 0.81% | assay value [3]: 97.4% | glass transition temperature (Tg) [4]: 125.61 °C
Compound: Cc1nc(Nc2ncc(C(=O)Nc3c(C)cccc3Cl)s2)cc(N2CCN(CCO)CC2)n1 [spray-dried material of 100% dasatinib]

— patent US12478625B2, “Pharmaceutical compositions and crushable tablets including amorphous solid dispersions of dasatinib and uses” (Handa Therapeutics, LLC, priority 2021, dated 2025)
